Data: patent publication US12139520B2 (priority 2020, dated 2024)
Bridge positions count the residues as written; N and C are the ends. Square brackets hold non-standard residues; d marks the D form. Peptide text beside a SMILES is read from it. Hyp = O=C(O)[C@@H]1C[C@@H](O)CN1; Cit = NC(=O)NCCC[C@H](N)C(=O)O

How the values were obtained:
[1] = target: hAM1 receptor (Homo sapiens, UniProt O60895+Q16602); assay: cAMP assay for in vitro receptor activation, hAM1-R; type: cell-based; settings: cAMP assay, hAM1 receptor; read-out: hAM1R EC50
Chain of hAM1 receptor (Q16602 23-461): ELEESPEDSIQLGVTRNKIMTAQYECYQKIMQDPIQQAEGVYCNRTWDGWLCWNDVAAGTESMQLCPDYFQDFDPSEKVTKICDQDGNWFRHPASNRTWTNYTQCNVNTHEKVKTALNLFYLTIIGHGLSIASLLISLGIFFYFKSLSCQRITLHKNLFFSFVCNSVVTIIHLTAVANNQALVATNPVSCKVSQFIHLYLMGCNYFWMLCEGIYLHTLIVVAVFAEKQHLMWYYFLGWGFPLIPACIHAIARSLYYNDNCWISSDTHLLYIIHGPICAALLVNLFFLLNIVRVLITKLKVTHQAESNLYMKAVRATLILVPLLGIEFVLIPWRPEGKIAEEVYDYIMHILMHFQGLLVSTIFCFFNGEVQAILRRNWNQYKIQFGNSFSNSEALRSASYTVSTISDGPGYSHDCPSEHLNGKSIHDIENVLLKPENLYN
Chain of hAM1 receptor (O60895 43-175 partner): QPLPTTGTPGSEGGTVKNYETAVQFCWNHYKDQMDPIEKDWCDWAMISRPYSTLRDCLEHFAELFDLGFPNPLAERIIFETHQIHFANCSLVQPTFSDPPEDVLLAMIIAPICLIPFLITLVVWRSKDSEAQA
Procedure, shortened: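 Stable hAM1 cells (monoclonal) plated 8000/well; buffer DPBS, 0.05% casein, 0.5 mM IBMX; cAMP read-out.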

[2] = Physical stability of peptide analogues (Thioflavin T fibrillation); type: physicochemical; settings: maximum ThT signal normalized between hAMY maximum and buffer background; 40° C., shaking, four days; pH 7 per table title
Procedure, shortened: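 Peptides in 50 mM sodium acetate pH 4 or 50 mM sodium phosphate pH 7 were preincubated 1 h, mixed with 4 μM ThT, held at 40° C with 700 rpm shaking before each read. Fluorescence (ex 450/em 480 nm) every 10 min for four days; LOESS-smoothed maximum signal normalized in percent between hAMY and buffer.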

EC50 [1] [µM] | Max ThT signal (%) [2] [%] | SMILES
> 5 | 7.200 | CC[C@H](C)[C@@H]1NC(=O)[C@H](CCCNC(=N)N)NC(=O)[C@@H](NC(=O)CN)CSSC[C@@H](C(=O)N[C@H](C(=O)N[C@H](C(=O)N[C@@H](CCC(N)=O)C(=O)N[C@@H](Cc2c[nH]c3ccccc23)C(=O)N[C@@H](CC(C)C)C(=O)N[C@@H](C)C(=O)N[C@@H](Cc2c[nH]cn2)C(=O)N[C@@H](CCC(N)=O)C(=O)N[C@H](C(=O)N[C@@H](Cc2ccc(O)cc2)C(=O)N[C@@H](CCC(N)=O)C(=O)N[C@@H](Cc2ccccc2)C(=O)N[C@H](C(=O)N[C@@H](CC(=O)O)C(=O)N[C@@H](CCCCN)C(=O)N[C@@H](Cc2ccccc2)C(=O)N[C@@H](CCCCN)C(=O)N[C@@H](CC(=O)O)C(=O)N[C@@H](CC(N)=O)C(=O)N[C@H](C(=O)N[C@@H](C)C(=O)N2CCC[C@H]2C(=O)N[C@@H](CCCNC(=N)N)C(=O)N[C@@H](CO)C(=O)N[C@@H](CCCCN)C(=O)N[C@H](C(=O)N[C@@H](CO)C(=O)N2CCC[C@H]2C(=O)N[C@@H](CCC(N)=O)C(=O)N[C@H](C(=O)N2C[C@H](O)C[C@H]2C(N)=O)[C@@H](C)O)[C@@H](C)CC)C(C)C)[C@@H](C)O)[C@@H](C)CC)C(C)C)[C@@H](C)O)NC(=O)[C@H]([C@@H](C)O)NC(=O)CNC1=O [compound 351] (H-GCRIGTCTVQWLAHQIYQFTDKFKDNVAPRSKISPQT[Hyp]-NH2; disulfide 2-7; N-terminus assumed)
> 5 | 16.950 | CC[C@H](C)[C@H](NC(=O)[C@H](CCCCN)NC(=O)[C@@H](NC(=O)[C@H](CCCNC(=N)N)NC(=O)[C@@H]1CCCN1C(=O)[C@H](C)NC(=O)[C@@H](NC(=O)[C@H](CC(N)=O)NC(=O)[C@H](CC(=O)O)NC(=O)[C@H](CCCCN)NC(=O)[C@H](CC(=O)O)NC(=O)[C@H](CCCCN)NC(=O)[C@H](CC(=O)O)NC(=O)[C@@H](NC(=O)[C@H](Cc1ccccc1)NC(=O)[C@H](CCC(N)=O)NC(=O)[C@H](Cc1ccc(O)cc1)NC(=O)[C@@H](NC(=O)[C@H](CCC(N)=O)NC(=O)[C@H](Cc1c[nH]cn1)NC(=O)[C@H](C)NC(=O)[C@H](CC(C)C)NC(=O)[C@H](CCCNC(N)=O)NC(=O)[C@H](CCC(N)=O)NC(=O)[C@@H](NC(=O)[C@@H](NC(=O)[C@@H]1CSSC[C@H](NC(=O)CN)C(=O)N[C@@H](CCCNC(=N)N)C(=O)N[C@@H]([C@@H](C)O)C(=O)NCC(=O)N[C@@H]([C@@H](C)O)C(=O)N1)[C@@H](C)O)C(C)C)[C@@H](C)CC)[C@@H](C)O)C(C)C)[C@@H](C)O)C(=O)NCC(=O)N1CCC[C@H]1C(=O)N[C@@H](CCC(N)=O)C(=O)NCC(=O)N1C[C@H](O)C[C@H]1C(N)=O [compound 301] (H-GCRTGTCTVQ[Cit]LAHQIYQFTDKDKDNVAPRTKIGPQG[Hyp]-NH2; disulfide 2-7; N-terminus assumed)
> 5 | 22.350 | CC[C@H](C)[C@H](NC(=O)[C@H](CCC(N)=O)NC(=O)[C@H](Cc1c[nH]cn1)NC(=O)[C@H](C)NC(=O)[C@H](CC(C)C)NC(=O)[C@H](CCCNC(N)=O)NC(=O)[C@H](CCC(N)=O)NC(=O)[C@@H](NC(=O)[C@@H](NC(=O)[C@@H]1CSSC[C@H](NC(=O)CN)C(=O)N[C@@H](CCCNC(=N)N)C(=O)N[C@@H]([C@@H](C)O)C(=O)NCC(=O)N[C@@H]([C@@H](C)O)C(=O)N1)[C@@H](C)O)C(C)C)C(=O)N[C@@H](Cc1ccc(O)cc1)C(=O)N[C@@H](CCC(N)=O)C(=O)N[C@@H](Cc1ccccc1)C(=O)N[C@H](C(=O)N[C@@H](CC(=O)O)C(=O)N[C@@H](CCCCN)C(=O)N[C@@H](CC(=O)O)C(=O)N[C@@H](CCCCN)C(=O)N[C@@H](CC(=O)O)C(=O)N[C@@H](CC(N)=O)C(=O)N[C@H](C(=O)N[C@@H](C)C(=O)N1CCC[C@H]1C(=O)N[C@@H](CCCNC(=N)N)C(=O)N[C@@H](CO)C(=O)N[C@@H](CC(N)=O)C(=O)N[C@H](C(=O)N[C@@H](CO)C(=O)N1CCC[C@H]1C(=O)N[C@@H](CC(N)=O)C(=O)NCC(=O)N1C[C@H](O)C[C@H]1C(N)=O)C(C)C)C(C)C)[C@@H](C)O [compound 304] (H-GCRTGTCTVQ[Cit]LAHQIYQFTDKDKDNVAPRSNVSPNG[Hyp]-NH2; disulfide 2-7)

Second part, the compound before the results:

SMILES | EC50 [1] [µM] | Max ThT signal (%) [2] [%]
CC[C@H](C)[C@H](NC(=O)[C@H](CCC(N)=O)NC(=O)[C@H](Cc1c[nH]cn1)NC(=O)[C@H](C)NC(=O)[C@H](CC(C)C)NC(=O)[C@H](CCCNC(=N)N)NC(=O)[C@H](CCC(N)=O)NC(=O)[C@@H](NC(=O)[C@@H](NC(=O)[C@@H]1CSSC[C@H](NC(=O)CN)C(=O)N[C@@H](CCCNC(=N)N)C(=O)N[C@@H]([C@@H](C)O)C(=O)NCC(=O)N[C@@H]([C@@H](C)O)C(=O)N1)[C@@H](C)O)C(C)C)C(=O)N[C@@H](Cc1ccc(O)cc1)C(=O)N[C@@H](CCC(N)=O)C(=O)N[C@@H](Cc1ccccc1)C(=O)N[C@H](C(=O)N[C@@H](CC(N)=O)C(=O)N[C@@H](CCCCN)C(=O)N[C@@H](CC(=O)O)C(=O)N[C@@H](CCCCN)C(=O)N[C@@H](CC(=O)O)C(=O)N[C@@H](CC(N)=O)C(=O)N[C@H](C(=O)N[C@@H](C)C(=O)N1CCC[C@H]1C(=O)N[C@@H](CCCNC(=N)N)C(=O)N[C@@H](CO)C(=O)N[C@@H](CCCCN)C(=O)N[C@H](C(=O)N[C@@H](CO)C(=O)N1CCC[C@H]1C(=O)N[C@@H](CCC(N)=O)C(=O)N[C@@H](CCC(N)=O)C(=O)N1C[C@H](O)C[C@H]1C(N)=O)[C@@H](C)CC)C(C)C)[C@@H](C)O [compound 232] (H-GCRTGTCTVQRLAHQIYQFTNKDKDNVAPRSKISPQQ[Hyp]-NH2; disulfide 2-7; N-terminus assumed) | > 5 | 1.200
CC[C@H](C)[C@H](NC(=O)[C@H](CCC(N)=O)NC(=O)[C@H](Cc1c[nH]cn1)NC(=O)[C@H](C)NC(=O)[C@H](CC(C)C)NC(=O)[C@H](CCCNC(=N)N)NC(=O)[C@H](CCC(N)=O)NC(=O)[C@@H](NC(=O)[C@@H](NC(=O)[C@@H]1CSSC[C@H](NC(=O)CN)C(=O)N[C@@H](CCCNC(=N)N)C(=O)N[C@@H]([C@@H](C)O)C(=O)NCC(=O)N[C@@H]([C@@H](C)O)C(=O)N1)[C@@H](C)O)C(C)C)C(=O)N[C@@H](Cc1ccc(O)cc1)C(=O)N[C@@H](CCC(N)=O)C(=O)N[C@@H](Cc1ccccc1)C(=O)N[C@H](C(=O)N[C@@H](CC(N)=O)C(=O)N[C@@H](CCCCN)C(=O)N[C@@H](CC(=O)O)C(=O)N[C@@H](CCCCN)C(=O)N[C@@H](CC(=O)O)C(=O)N[C@@H](CC(N)=O)C(=O)N[C@H](C(=O)N[C@@H](C)C(=O)N1CCC[C@H]1C(=O)N[C@@H](CCCNC(=N)N)C(=O)N[C@@H](CO)C(=O)N[C@@H](CCCCN)C(=O)N[C@H](C(=O)N[C@@H](CO)C(=O)N1CCC[C@H]1C(=O)N[C@@H](CCC(N)=O)C(=O)N[C@@H](Cc1c[nH]cn1)C(=O)N1C[C@H](O)C[C@H]1C(N)=O)[C@@H](C)CC)C(C)C)[C@@H](C)O [compound 219] (H-GCRTGTCTVQRLAHQIYQFTNKDKDNVAPRSKISPQH[Hyp]-NH2; disulfide 2-7; N-terminus assumed) | 4.25 | 0.700
CC[C@H](C)[C@@H]1NC(=O)[C@H](CCCNC(=N)N)NC(=O)[C@@H](NC(=O)CN)CSSC[C@@H](C(=O)N[C@H](C(=O)N[C@H](C(=O)N[C@@H](CCC(N)=O)C(=O)N[C@@H](CCCNC(N)=O)C(=O)N[C@@H](CC(C)C)C(=O)N[C@@H](C)C(=O)N[C@@H](Cc2c[nH]cn2)C(=O)N[C@@H](CCC(N)=O)C(=O)N[C@H](C(=O)N[C@@H](Cc2ccc(O)cc2)C(=O)N[C@@H](CCC(N)=O)C(=O)N[C@@H](Cc2ccccc2)C(=O)N[C@H](C(=O)N[C@@H](CC(=O)O)C(=O)N[C@@H](CCCCN)C(=O)N[C@@H](Cc2ccccc2)C(=O)N[C@@H](CCCCN)C(=O)N[C@@H](CC(=O)O)C(=O)N[C@@H](CC(N)=O)C(=O)N[C@H](C(=O)N[C@@H](C)C(=O)N2CCC[C@H]2C(=O)N[C@@H](CCCNC(=N)N)C(=O)N[C@@H](CO)C(=O)N[C@@H](CCCCN)C(=O)N[C@H](C(=O)N[C@@H](CO)C(=O)N2CCC[C@H]2C(=O)N[C@@H](CCC(N)=O)C(=O)N[C@H](C(=O)N2C[C@H](O)C[C@H]2C(N)=O)[C@@H](C)O)[C@@H](C)CC)C(C)C)[C@@H](C)O)[C@@H](C)CC)C(C)C)[C@@H](C)O)NC(=O)[C@H]([C@@H](C)O)NC(=O)CNC1=O [compound 295] (H-GCRIGTCTVQ[Cit]LAHQIYQFTDKFKDNVAPRSKISPQT[Hyp]-NH2; disulfide 2-7; N-terminus assumed) | > 5 | 19.450
CC(C)C[C@H](NC(=O)[C@H](CCCNC(=N)N)NC(=O)[C@H](CCC(N)=O)NC(=O)[C@@H](NC(=O)[C@@H](NC(=O)[C@@H]1CSSC[C@H](NC(=O)[C@@H](N)CCCCN)C(=O)N[C@@H](CC(N)=O)C(=O)N[C@@H]([C@@H](C)O)C(=O)N[C@@H](C)C(=O)N[C@@H]([C@@H](C)O)C(=O)N1)[C@@H](C)O)C(C)C)C(=O)N[C@@H](C)C(=O)N[C@@H](Cc1c[nH]cn1)C(=O)N[C@@H](CCC(N)=O)C(=O)N[C@@H](C)C(=O)N[C@@H](Cc1ccc(O)cc1)C(=O)N[C@@H](CCC(N)=O)C(=O)N[C@@H](Cc1ccccc1)C(=O)N[C@H](C(=O)N[C@@H](CC(=O)O)C(=O)N[C@@H](CCCCN)C(=O)N[C@@H](CC(=O)O)C(=O)N[C@@H](CCCCN)C(=O)N[C@@H](CC(=O)O)C(=O)N[C@@H](CC(N)=O)C(=O)N[C@H](C(=O)N[C@@H](C)C(=O)N1CCC[C@H]1C(=O)N1CCC[C@H]1C(=O)N[C@H](C(=O)N[C@@H](CC(N)=O)C(=O)N[C@H](C(=O)NCC(=O)N[C@@H](CO)C(=O)N[C@@H](CC(N)=O)C(=O)NCC(=O)N1C[C@H](O)C[C@H]1C(N)=O)C(C)C)[C@@H](C)O)C(C)C)[C@@H](C)O [compound 210] (H-KCNTATCTVQRLAHQAYQFTDKDKDNVAPPTNVGSNG[Hyp]-NH2; disulfide 2-7) | > 5 | 1.400
